{"source": "patent US20130267606A1", "about": "“USE OF VITAMIN K FOR WEIGHT MAINTENANCE AND WEIGHT CONTROL” (VITAK B.V., priority 2011, published 2013)", "key": {"[1]": {"system": "adipogenesis", "settings": "in vitro; cited from earlier work"}, "[2]": {"test": "placebo controlled 3-year randomized trial of vitamin K2 (MK-7) on body weight and BMI in postmenopausal women (Example 4)", "assay_type": "in vivo, human", "description": "250 apparently healthy postmenopausal women (age range: 55-75 years) were recruited in a placebo controlled 3-year randomized trial to investigate the influence of vitamin K2 (MK-7, 180 μg/day) on body weight and BMI. Exclusion criteria were: BMI>30 kg/m^2, a medical history or use of drugs known to interfere with vitamin K-, calcium- and/or glucose-metabolism. Body height was measured using a wall-mounted stadiometer. Body weight was measured to the nearest 0.1 kg with participants wearing light clothing and no shoes. Body mass index (BMI) was calculated as body weight (kg) divided by the square of height (m^2). Statistical analysis was performed using the statistical package (SPSS vs 17.0 Corp, Chicago, Ill.). […] In the unpaired t-test the difference in response to treatment was statistically significant at P<0.005 after 3 years."}, "[3]": {"test": "placebo controlled randomized 3-year trial of vitamin K2 (MK-4) on BMI and serum markers in postmenopausal women (Example 3)", "assay_type": "in vivo, human", "settings": "for serum ucOC / serum cOC: mean±SD"}, "[4]": {"test": "vitamin K2 (MK-7) dose-response study, circulating osteocalcin and adiponectin (Example 2)", "assay_type": "in vivo, human"}, "[5]": {"settings": "after 3 years of supplementation, cited from earlier work"}, "[6]": {"settings": "1 year of supplementation, healthy postmenopausal women; cited from earlier work"}, "[7]": {"test": "placebo controlled 2-year randomized trial of vitamin K1 on body weight and BMI during and after weight reduction intervention (Example 5)", "assay_type": "in vivo, human", "settings": "vitamin K1 1 mg/day", "description": "120 apparently healthy but overweight subjects (age range: 35-60 years, 52 men, 68 women) were recruited in a placebo controlled 2-year randomized trial to investigate the influence of vitamin K1 (1 mg/day) on body weight and BMI during and after a 6-month intervention aiming significant weight reduction. At the start of the study participants were randomized to receive either placebo or vitamin K for 24 months. All participants received extensive dietary counselling and were motivated to increase their physical exercise during the first 6 months of the study, with personal contact once weekly. After this initial period, counselling was stopped, but vitamin K/placebo treatment was continued for another 18 months, while participants visited our institute every half year. Inclusion criteria were: apparently healthy, BMI between 25 and 35 kg/m^2, Exclusion criteria were: a medical history or use of drugs known to interfere with vitamin K-, calcium- and/or glucose-metabolism. Body height was measured using a wall-mounted stadiometer. Body weight was measured to the nearest 0.1 kg with participants wearing light clothing and no shoes. Body mass index (BMI) was calculated as body weight (kg) divided by the square of height (m^2). Statistical analysis was performed using the statistical package (SPSS vs 17.0 Corp, Chicago, Ill.)."}, "[8]": {"settings": "62.5 mg/kg body weight per day, rats; cited from earlier work"}, "[9]": {"settings": "second phase of the study (18 months)"}}, "note": "Where two headings read alike, the source gives them in different places.", "data": [{"compound": "CC(C)=CCC/C(C)=C/CC/C(C)=C/CC/C(C)=C/CC1=C(C)C(=O)c2ccccc2C1=O", "note": "[MK-4]", "values": [{"measurement": "adipogenesis", "setting": "[1]", "result": "inhibited"}, {"measurement": "osteoblastic differentiation", "setting": "[1]", "result": "stimulated"}, {"measurement": "BMI", "setting": "[2]; after 3 years supplementation (180 μg/day), P=0.463", "result": "25.4±3.0", "unit": "kg/m^2"}, {"measurement": "average body weight", "setting": "[2]; after 3 years supplementation (180 μg/day), non-significant change", "result": 67.4, "unit": "kg"}, {"measurement": "BMI", "setting": "[2]; baseline, treated group", "result": "25.2±2.8", "unit": "kg/m^2"}, {"measurement": "average body weight", "setting": "[2]; baseline, treated group", "result": 66.9, "unit": "kg"}, {"measurement": "UCR (ucOC/cOC ratio)", "setting": "[3]; after 3 years MK-4 45 mg/day", "result": "0.12±0.15"}, {"measurement": "decrease of UCR", "setting": "[3]; after 3 years MK-4 45 mg/day versus baseline, P<0.0001", "result": "74±22", "unit": "%"}, {"measurement": "serum ucOC", "setting": "[3]; after 3 years MK-4 45 mg/day, P<0.0001", "result": "0.8 ± 1.0", "unit": "ng/mL"}, {"measurement": "serum cOC", "setting": "[3]; after 3 years MK-4 45 mg/day, P=0.046", "result": "6.9 ± 2.3", "unit": "ng/mL"}, {"measurement": "circulating adiponectin", "setting": "[3]; after 3 years MK-4 45 mg/day, no significant difference to placebo (P=0.224)", "result": "13.1 ± 8.3", "unit": "µg/mL"}, {"measurement": "BMI", "setting": "[3]; after 3 years MK-4 45 mg/day, non-significant increase (P=0.463)", "result": "27.2±0.3", "unit": "kg/m^2"}, {"measurement": "BMI", "setting": "[3]; baseline, MK-4 group", "result": "27.1±0.3", "unit": "kg/m^2"}, {"measurement": "UCR (ucOC/cOC ratio)", "setting": "[3]; baseline, MK-4 group", "result": "0.54±0.35"}, {"measurement": "serum cOC", "setting": "[3]; baseline, MK-4 group", "result": "6.4 ± 2.5", "unit": "ng/mL"}, {"measurement": "serum ucOC", "setting": "[3]; baseline, MK-4 group", "result": "3.2 ± 1.9", "unit": "ng/mL"}, {"measurement": "circulating adiponectin", "setting": "[3]; baseline, MK-4 group, no significant difference to placebo (P=0.562)", "result": "14.2 ± 9.7", "unit": "µg/mL"}, {"measurement": "average body weight", "setting": "[3]; remained constant over 3 years MK-4 45 mg/day", "result": "70.3 ± 0.9", "unit": "kg"}]}, {"compound": "CC(C)=CCC/C(C)=C/CC/C(C)=C/CC/C(C)=C/CC/C(C)=C/CC/C(C)=C/CC/C(C)=C/CC1=C(C)C(=O)c2ccccc2C1=O", "note": "[MK-7]", "values": [{"measurement": "effect on body weight and BMI", "setting": "[2]; nutritionally relevant intake, MK-7 180 μg/day, 3 years, versus placebo increase", "result": "maintenance of body weight and BMI"}, {"measurement": "ucOC/cOC ratio", "setting": "[4]; MK-7 45-360 μg per day for 12 weeks, effect even at 45 μg/day", "result": "significant decrease"}, {"measurement": "circulating ucOC", "setting": "[4]; MK-7 45-360 μg per day for 12 weeks, effect even at 45 μg/day, healthy men and premenopausal women", "result": "significant decrease"}, {"measurement": "circulating adiponectin", "setting": "[4]; nutritional levels of MK-7, 12 weeks", "result": "does not affect"}]}, {"compound": "CC1=C(C/C=C(\\C)CCC[C@H](C)CCC[C@H](C)CCCC(C)C)C(=O)c2ccccc2C1=O", "note": "[vitamin K1, phylloquinone]", "values": [{"measurement": "adipogenesis", "setting": "[1]", "result": "not"}, {"measurement": "progression of insulin resistance", "setting": "[5]; older men", "result": "reduced"}, {"measurement": "progression of insulin resistance", "setting": "[5]; women", "result": "not"}, {"measurement": "glucose metabolism", "setting": "[6]", "result": "did not alter"}, {"measurement": "decrease of average body weight and BMI versus placebo", "setting": "[7]; first 6 months with dietary counselling and exercise", "result": "non-significant better performance"}, {"measurement": "average weight gain versus placebo group", "setting": "[7]; following 18 months (second phase), p<0.05", "result": "significantly lower"}, {"measurement": "participants returned to their starting weight", "setting": "[7]; [9]", "result": 7, "unit": "participants"}, {"measurement": "participants without significant weight gain", "setting": "[7]; [9]", "result": 28, "unit": "participants"}]}, {"compound": "menaquinone [vitamin K2]", "values": [{"measurement": "effect in animal model for auto-immune disease", "setting": "[8]", "result": "protective"}]}]}
